The subject of one data set is DocSTm toxin. The following applies: DocSTm 5 μM, peptide 50 μM, pH 8.0; average ± SD, replicates 3-48 (Table S3). The procedure, abridged: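 Thermal shift with 5 μM recombinant Doc toxin and 50 μM Phd peptides in 20 mM K2HPO4, 50 mM (NH4)2SO4, pH 8.0, SYPRO Orange 3×, ramped 25–95 °C. Tm from Boltzmann fit; ΔTm is peptide-bound minus free DocSTm Tm, triplicates.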

For data set [1], the system named is S. typhimurium (14028s) Δphd-doc::Km strain expressing DocSTm (pBAD33::doc). The experiment in a line: Growth rescue experiments in DocSTm-expressing S. typhimurium. The class given is cell-based. As to conditions: three independent experiments. As to the method:
S. typhimurium (14028s) Δphd-doc::Km strains carrying pCA24N (empty vector or encoding for the Phd^52–73 variant) and pBAD33::doc plasmids were grown overnight in LB medium containing 1% glucose and supplemented with 100 μg/mL carbenicillin and 34 μg/mL chloramphenicol antibiotics. Cultures were then diluted to an OD600 of approximately 0.1 into 200 μL of fresh M9 minimal medium supplemented with 0.5% arabinose, 100 μg/mL carbenicillin, 34 μg/mL chloramphenicol, and containing 2 or 10 μM of the indicated synthetic Phd^52–73 peptide. Untreated DocSTm-expressing S. typhimurium as well as S. typhimurium coexpressing Doc and Phd^52–73 peptides were included as controls in each experiment. After 2 h of incubation at RT, samples were transferred to a flat-bottom 96-well plate (Greiner), and OD600 was monitored every 15 min for 24 h at 37 °C using an Infinite M Plex plate reader (Tecan LifeScience) and orbital shaking with 1 mm amplitude. Peptides were tested in three independent experiments.

For data set [2], the system named is S. typhimurium (14028s) glmS::mCherry strain. The experiment in a line: Peptide uptake in S. typhimurium by flow cytometry. As to conditions: RT; for Uptake into S. typhimurium (penetration efficiency) / Uptake into S. typhimurium (% fluorescent cells): 10 μM FAM-labeled peptide; for Uptake into S. typhimurium (penetration efficiency): 4 or 22 h, M9 minimal medium; for Uptake into S. typhimurium (% fluorescent cells): 22 h. The format is cell-based. As to the method: S. typhimurium (14028s) glmS::mCherry strain was grown overnight in LB medium containing 1% glucose. The culture was then diluted to an OD600 of approximately 0.1 into 200 μL of fresh M9 minimal medium supplemented with 0.5% arabinose containing 2 or 10 μM of the indicated 5(6)-carboxyfluorescein-labeled Phd^52–73 peptide. The samples were incubated on the bench at RT for 4 or 22 h with no access to light. Bacteria were then spun down, washed with 1 mL of PBS solution, and finally resuspended in 1 mL of PBS solution for flow cytometry analysis (BD LSR II). Constitutively expressed mCherry was used to discriminate bacteria from the debris in each sample.
For orientation: Flow cytometry measures light scatter and fluorescence of single cells or particles in a stream.

For another data set, the system named is E. coli MG1655. Kind of data set: Peptide uptake in E. coli by flow cytometry. The format is cell-based. As to conditions: 5 μM FAM-labeled peptide in PBS, 2 h, 37 °C, E. coli MG1655, trypan blue quench, mean ± SD. Here is the method: E. coli MG1655 strain was grown in LB medium to an OD600 of around 0.5. Approximately 10^7 cells were washed once with PBS and subsequently incubated with 5 μM of the indicated 5(6)-carboxyfluorescein-labeled Phd^52–73 peptide in PBS (500 μL) for 2 h at 37 °C. Bacteria were washed twice with PBS, and trypan blue (1 mg mL^–1) in PBS was added and incubated for 10 min at RT. Bacteria were washed an additional time with PBS and resuspended in 2 mL of PBS. Flow cytometry analysis was performed using a ThermoFisher Attune NxT and a blue laser (BL1) for fluorescein excitation.

“Also recorded” adds a separate entry of the source. Positions of bridges follow the written chain, without caps; N, C: chain ends. Non-standard residues stand in square brackets, D forms with d. Residues, ends and D or L forms follow the SMILES beside them. *: point of attachment. 5FAM = O=C1OC2(c3ccc(O)cc3Oc3cc(O)ccc32)c2ccc(C(=O)*)cc21; S5 = C=CCCC[C@](C)(N)C(=O)O; Nle = CCCC[C@H](N)C(=O)O

With `CCCC[C@H](NC(=O)[C@H](Cc1c[nH]c2ccccc12)NC(C)=O)C(=O)N[C@@H](CC(N)=O)C(=O)N[C@@H](CC(N)=O)C(=O)N[C@@H](CCC(=O)O)C(=O)N[C@@H](Cc1ccccc1)C(=O)N[C@@]1(C)CCCC=CCCC[C@@](C)(C(=O)N[C@H](C(=O)N[C@@H](Cc2c[nH]cn2)C(=O)NCC(=O)N[C@@H](CCCNC(=N)N)C(=O)N[C@@H](CCC(N)=O)C(=O)N[C@@H](CC(C)C)C(=O)N[C@@H](CCCNC(=N)N)C(=O)N[C@@H](CCCNC(=N)N)C(=O)N[C@@H](CC(C)C)C(=O)N[C@@H](C)C(=O)N[C@@H](CCCNC(=N)N)C(=O)N[C@@H](CCCCN)C(=O)O)C(C)C)NC(=O)[C@H](CCCC)NC(=O)[C@H]([C@@H](C)CC)NC(=O)[C@H](C)NC1=O` [Peptide 36] (Ac-W[Nle]NNEF[S5]AI[Nle][S5]VHGRQLRRLARK-OH; staple 7-11), the “Average Tm of DocSTm in the presence of peptide” value in the data set with DocSTm toxin turned out to be 61.3 ± 1.1 °C. Also, the Growth rescue kinetics entry in data set [1] (10 μM peptide, growth curves over 24 h at 37 °C) is reported as “faster growth rescue than peptide 1; also recorded: more rapidly than 1; also recorded: faster rate than the unmodified peptide 1”. Besides, the “Rescue from DocSTm-induced growth inhibition (OD600)” value in data set [1] (10 μM synthetic peptide, 24 h, 37 °C, start OD600 0.1, M9 minimal medium with 0.5% arabinose) was “reproducibly rescued DocSTm-induced growth arrest; also recorded: growth rescue was also observed; also recorded: fully rescued”.
For `CCCC[C@H](NC(=O)[C@H](Cc1c[nH]c2ccccc12)NC(=O)c1ccc2c(c1)C(=O)OC21c2ccc(O)cc2Oc2cc(O)ccc21)C(=O)N[C@@H](CCCNC(=N)N)C(=O)N[C@@H](CC(=O)O)C(=O)N[C@@H](CCC(=O)O)C(=O)N[C@@H](Cc1ccccc1)C(=O)N[C@@H](C)C(=O)N[C@@H](C)C(=O)N[C@H](C(=O)N[C@@H](CCCC)C(=O)N[C@@H](CCCNC(=N)N)C(=O)N[C@H](C(=O)N[C@@H](Cc1c[nH]cn1)C(=O)NCC(=O)N[C@@]1(C)CCCC=CCCC[C@@](C)(C(=O)N[C@@H](CC(C)C)C(=O)N[C@@H](C)C(=O)N[C@@H](CC(=O)O)C(=O)N[C@@H](CCCCN)C(=O)O)NC(=O)[C@H](CCCNC(=N)N)NC(=O)[C@H](CC(C)C)NC(=O)[C@H](CCC(=O)O)NC1=O)C(C)C)[C@@H](C)CC` [FAM-18] (5FAM-W[Nle]RDEFAAI[Nle]RVHG[S5]ELR[S5]LADK-OH; staple 15-19), the “Uptake into S. typhimurium (penetration efficiency)” value in data set [2] is 9–30%. Also, in the data set with E. coli MG1655, the “Cellular uptake into E. coli (penetration efficiency)” value (“Cellular uptake into E. coli” for short) is on record as 7–14%.
Consider `CCCC[C@H](NC(=O)[C@H](Cc1c[nH]c2ccccc12)NC(=O)c1ccc2c(c1)C(=O)OC21c2ccc(O)cc2Oc2cc(O)ccc21)C(=O)N[C@@H](CCCNC(=N)N)C(=O)N[C@@H](CC(=O)O)C(=O)N[C@@H](CCC(=O)O)C(=O)N[C@@H](Cc1ccccc1)C(=O)N[C@@H](C)C(=O)N[C@@H](C)C(=O)N[C@H](C(=O)N[C@@H](CCCC)C(=O)N[C@@H](CCCNC(=N)N)C(=O)N[C@H](C(=O)N[C@@H](Cc1c[nH]cn1)C(=O)NCC(=O)N[C@@H](CC(N)=O)C(=O)N[C@@H](CCC(=O)O)C(=O)N[C@@H](CC(C)C)C(=O)N[C@@H](CCCNC(=N)N)C(=O)N[C@@H](CCC(=O)O)C(=O)N[C@@H](CC(C)C)C(=O)N[C@@H](C)C(=O)N[C@@H](CC(=O)O)C(=O)N[C@@H](CCCCN)C(=O)O)C(C)C)[C@@H](C)CC` [FAM-16] (5FAM-W[Nle]RDEFAAI[Nle]RVHGNELRELADK-OH), for which the “Cellular uptake into E. coli” value in the data set on E. coli MG1655 is recorded as 7–14%.
`CCCC[C@H](NC(=O)[C@H](Cc1c[nH]c2ccccc12)NC(=O)c1ccc2c(c1)C(=O)OC21c2ccc(O)cc2Oc2cc(O)ccc21)C(=O)N[C@@H](CC(N)=O)C(=O)N[C@@H](CC(N)=O)C(=O)N[C@@H](CCC(=O)O)C(=O)N[C@@H](Cc1ccccc1)C(=O)N[C@@]1(C)CCCC=CCCC[C@@](C)(C(=O)N[C@H](C(=O)N[C@@H](Cc2c[nH]cn2)C(=O)NCC(=O)N[C@@H](CCCNC(=N)N)C(=O)N[C@@H](CCC(N)=O)C(=O)N[C@@H](CC(C)C)C(=O)N[C@@H](CCCNC(=N)N)C(=O)N[C@@H](CCCNC(=N)N)C(=O)N[C@@H](CC(C)C)C(=O)N[C@@H](C)C(=O)N[C@@H](CCCNC(=N)N)C(=O)N[C@@H](CCCCN)C(=O)O)C(C)C)NC(=O)[C@H](CCCC)NC(=O)[C@H]([C@@H](C)CC)NC(=O)[C@H](C)NC1=O` [FAM-36] (5FAM-W[Nle]NNEF[S5]AI[Nle][S5]VHGRQLRRLARK-OH; staple 7-11): in data set [2], the “Uptake into S. typhimurium (penetration efficiency)” value was 9–30% and the “Uptake into S. typhimurium (% fluorescent cells)” value is “more than 20%”.
With `CCCC[C@H](NC(=O)[C@H](Cc1c[nH]c2ccccc12)NC(=O)c1ccc2c(c1)C(=O)OC21c2ccc(O)cc2Oc2cc(O)ccc21)C(=O)N[C@@H](CC(=O)O)C(=O)N[C@@H](CC(=O)O)C(=O)N[C@@H](CCC(=O)O)C(=O)N[C@@H](Cc1ccccc1)C(=O)N[C@@H](C)C(=O)N[C@@H](C)C(=O)N[C@H](C(=O)N[C@@H](CCCC)C(=O)N[C@@H](C)C(=O)N[C@H](C(=O)N[C@@H](Cc1c[nH]cn1)C(=O)NCC(=O)N[C@@H](CC(N)=O)C(=O)N[C@@H](CCC(=O)O)C(=O)N[C@@H](CC(C)C)C(=O)N[C@@H](CCCNC(=N)N)C(=O)N[C@@H](CCC(=O)O)C(=O)N[C@@H](CC(C)C)C(=O)N[C@@H](C)C(=O)N[C@@H](CC(=O)O)C(=O)N[C@@H](CCCCN)C(=O)O)C(C)C)[C@@H](C)CC` [FAM-1] (5FAM-W[Nle]DDEFAAI[Nle]AVHGNELRELADK-OH), the “Uptake into S. typhimurium (% fluorescent cells)” value in data set [2] was “less than 1%”. In addition, the “Uptake into S. typhimurium, in words” value in data set [2] (2 and 10 μM FAM-labeled peptide, 4 and 22 h) is on record as “very low uptake”. Besides, the “Cellular uptake into E. coli” value in the data set with E. coli MG1655 was “extremely low uptake”.
For `CCCC[C@H](NC(=O)[C@H](Cc1c[nH]c2ccccc12)NC(=O)c1ccc2c(c1)C(=O)OC21c2ccc(O)cc2Oc2cc(O)ccc21)C(=O)N[C@@H](CCCNC(=N)N)C(=O)N[C@@H](CC(=O)O)C(=O)N[C@@H](CCC(=O)O)C(=O)N[C@@H](Cc1ccccc1)C(=O)N[C@@H](CCCNC(=N)N)C(=O)N[C@@H](C)C(=O)N[C@H](C(=O)N[C@@H](CCCC)C(=O)N[C@@H](CCCNC(=N)N)C(=O)N[C@H](C(=O)N[C@@H](Cc1c[nH]cn1)C(=O)NCC(=O)N[C@@H](CC(N)=O)C(=O)N[C@@H](CCC(=O)O)C(=O)N[C@@H](CC(C)C)C(=O)N[C@@H](CCCNC(=N)N)C(=O)N[C@@H](CCC(=O)O)C(=O)N[C@@H](CC(C)C)C(=O)N[C@@H](C)C(=O)N[C@@H](CC(=O)O)C(=O)N[C@@H](CCCCN)C(=O)O)C(C)C)[C@@H](C)CC` [FAM-19] (5FAM-W[Nle]RDEFRAI[Nle]RVHGNELRELADK-OH), the “Cellular uptake into E. coli” value in the data set on E. coli MG1655 is reported as 7–14%.

(Values after publication PMC10728895, “Stapled Phd Peptides Inhibit Doc Toxin Induced Growth Arrest in Salmonella” (ACS Chemical Biology, 2023).)
